Measured values reported in ChEMBL document CHEMBL1151721, “Fagraldehyde, a secoiridoid isolated from Fagraea fragrans” (J Nat Prod, 2008).
In brackets after ≈: the same amount, converted by molar mass.

Tested on: Plasmodium falciparum
Assay: Antiplasmodial activity against chloroquine-resistant Plasmodium falciparum W2 by FACS
Assay type: functional, organism-based

SMILES	IC50 [µg/mL]
CC1OC(=O)C(C=O)=C2C=COC=C21 (centres undefined) [FAGRALDEHYDE]	22.4 (≈ 117 µM)
C=C[C@@H]1C2=CCOC(=O)C2=CO[C@H]1O[C@@H]1O[C@H](CO)[C@@H](O)[C@H](O)[C@H]1O [GENTIOPICROSIDE]	> 50
C=C[C@H]1[C@H](O[C@@H]2O[C@H](CO)[C@@H](O)[C@H](O)[C@H]2O)OC=C2C(=O)OCC[C@H]21 [SWEROSIDE]	> 50
C=C[C@H]1[C@H](O[C@@H]2O[C@H](CO)[C@@H](O)[C@H](O)[C@H]2O)OC=C2C(=O)OCC[C@]21O [SWERTIAMARIN]	> 50
